Data on 7 molecules can be found in patent US7736624B2, “Methods and compositions for diagnostic and therapeutic targeting of COX-2” (priority 2006, dated 2010).

For data set [1], the target named is T1, COX-1 (Ovis aries, UniProt P05979).
T1 sequence (P05979 25-600): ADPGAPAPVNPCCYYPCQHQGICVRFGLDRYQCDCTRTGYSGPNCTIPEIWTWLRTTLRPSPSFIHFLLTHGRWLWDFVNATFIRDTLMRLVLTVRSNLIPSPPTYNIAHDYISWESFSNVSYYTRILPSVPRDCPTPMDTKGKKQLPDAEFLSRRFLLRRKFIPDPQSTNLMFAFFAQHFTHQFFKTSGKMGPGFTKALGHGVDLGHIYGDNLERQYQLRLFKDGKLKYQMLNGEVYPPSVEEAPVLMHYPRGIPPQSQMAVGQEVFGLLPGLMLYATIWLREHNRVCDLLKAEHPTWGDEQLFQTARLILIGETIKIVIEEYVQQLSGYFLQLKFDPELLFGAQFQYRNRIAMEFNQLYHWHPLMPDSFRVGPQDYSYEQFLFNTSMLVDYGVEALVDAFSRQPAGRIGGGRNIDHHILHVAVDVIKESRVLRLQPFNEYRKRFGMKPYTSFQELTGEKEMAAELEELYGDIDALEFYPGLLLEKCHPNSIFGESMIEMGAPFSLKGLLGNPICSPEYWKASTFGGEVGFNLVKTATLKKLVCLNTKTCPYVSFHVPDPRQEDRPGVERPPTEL
As to conditions: literature; cited from earlier work.

Another data set has as its system RAW264.7 cells. Put plainly: In vitro cell imaging, LPS/IFNγ-activated RAW264.7 cells. Conditions: for fluorescence of control compounds in these in vitro assays: RAW264.7, HEK293/COX-2 and 1483 imaging assays. The data set is classed as cell-based, mouse. Here is the method: RAW264.7 cells (a line established from a tumor induced in a mouse by Abelson murine leukemia virus and available from the American Type Culture Collection, Manassas, Va., United States of America) were grown overnight on 35 mm culture dishes (MatTek Corp., Ashland, Mass., United States of America) with glass coverslips in Dulbecco's Modified Eagle Medium (DMEM) plus 10% heat-inactivated fetal bovine serum (FBS). Platings of cells were done in order to reach 30% confluency the next day. After overnight growth, the growth medium was replaced with 2 ml serum-free DMEM per dish. Individual dishes then received 200 ng/ml LPS plus 10 units/ml murine IFNγ (Roche Applied Science, Indianapolis, Ind., United States of America) for 6 hours to induce COX-2. […] After 30 minutes, the cells were washed briefly three times in medium and incubated in Hank's balanced salt solution (HBSS)/Tyrode's for 60 minutes at 37° C. After 60 minutes, the HBSS/Tyrode's was removed and fresh HBSS/Tyrode's was added. The cells were immediately imaged using a Zeiss Axiovert 25 Microscope (propidium iodide filter/2-3 sec exposure/gain of 2).

Another data set concerns the target T2, ovine COX-1 (Ovis aries, UniProt P05979).
T2 construct: can be purified from ovine seminal vesicles by standard procedures; from tissue; host or cells: ovine seminal vesicles
T2 sequence (P05979 25-600): T1 sequence (P05979 25-600)
Kind of data set: IC50 determinations using purified enzymes (TLC assay), COX-1. The data set is classed as biochemical. As to conditions: Table 3; assayed against purified enzymes. From the text: (§1) Those skilled in the art will appreciate that an evaluation of the selectivity and efficacy of binding of the NSAID derivative to the COX-2 enzyme, e.g., after the derivative is synthesized, can be desirable. […] One example of an in vitro screening method takes advantage of the fact that both human and murine recombinant COX-2 can be expressed and isolated in pure form from an Sf9 cell expression system. […] Alternatively, membrane preparations from outdated human platelets can provide a source of human COX-1. […] The reaction is stopped by the addition of ethanol/methanol/1 M citrate, pH 4.0 (30:4:1). The extracted products are separated by thin layer chromatography (TLC), which allows quantitation of total product formation as well as assessment of product distribution. This assay is useful to define IC50 values for inhibition of either enzyme, and to determine time-dependency of inhibition. It also provides information concerning changes in products formed as a result of inhibition.
(§2) Reactions were terminated by solvent extraction in Et2O/CH3OH/1 M citrate, pH 4.0 (30:4:1). The phases were separated by centrifugation at 2000 g for 5 minutes and the organic phase was spotted on a 20×20 cm TLC plate (Lieselgel 60, EMD Chemicals, Inc., Gibbstown, N.J., United States of America). The plate was developed in EtOAc/CH2Cl2/glacial AcOH (75:25:1) at 4° C. Radiolabeled prostanoid products were quantitatively determined with a radioactivity scanner available from Bioscan, Inc. (Washington, D.C., United States of America). The percentage of total products observed at different concentrations of the presently disclosed compositions was divided by the percentage of products observed for protein samples preincubated for the same amount of time with DMSO.

Data set [2] addresses T3, COX-2 (Homo sapiens, UniProt P35354).
T3 sequence (P35354 18-604): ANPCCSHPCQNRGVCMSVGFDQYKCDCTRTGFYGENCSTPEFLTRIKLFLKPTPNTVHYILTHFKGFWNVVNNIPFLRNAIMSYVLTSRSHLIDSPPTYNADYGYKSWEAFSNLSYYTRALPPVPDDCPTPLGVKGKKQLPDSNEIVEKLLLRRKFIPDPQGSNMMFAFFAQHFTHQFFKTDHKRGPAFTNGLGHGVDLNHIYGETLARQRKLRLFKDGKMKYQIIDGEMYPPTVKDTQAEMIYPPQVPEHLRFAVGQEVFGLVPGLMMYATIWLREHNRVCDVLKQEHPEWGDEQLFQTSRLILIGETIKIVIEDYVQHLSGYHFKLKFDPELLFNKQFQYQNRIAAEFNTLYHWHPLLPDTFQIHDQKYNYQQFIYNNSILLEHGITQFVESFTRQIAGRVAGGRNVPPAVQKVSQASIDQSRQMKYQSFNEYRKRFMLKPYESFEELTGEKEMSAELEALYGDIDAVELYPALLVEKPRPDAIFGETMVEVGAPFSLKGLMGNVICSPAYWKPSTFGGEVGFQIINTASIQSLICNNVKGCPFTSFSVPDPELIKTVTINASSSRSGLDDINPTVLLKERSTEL
Put plainly: IC50 determinations using purified enzymes (TLC assay), COX-2. The class given is biochemical. Set-up: made in house; host or cells: Sf9 insect cells. As to conditions: assayed against purified enzymes, read-out: IC50 COX-2.
Excerpt: as §1, §2

Another data set in a line: Fluorescence in buffer. The data set is classed as physicochemical. Conditions: for Fluor. λem: emission; for Fluor. λex: excitation.
For data set [3], the target named is T4, COX-1 (Mus musculus, UniProt P22437).
T4 sequence (P22437 1-602): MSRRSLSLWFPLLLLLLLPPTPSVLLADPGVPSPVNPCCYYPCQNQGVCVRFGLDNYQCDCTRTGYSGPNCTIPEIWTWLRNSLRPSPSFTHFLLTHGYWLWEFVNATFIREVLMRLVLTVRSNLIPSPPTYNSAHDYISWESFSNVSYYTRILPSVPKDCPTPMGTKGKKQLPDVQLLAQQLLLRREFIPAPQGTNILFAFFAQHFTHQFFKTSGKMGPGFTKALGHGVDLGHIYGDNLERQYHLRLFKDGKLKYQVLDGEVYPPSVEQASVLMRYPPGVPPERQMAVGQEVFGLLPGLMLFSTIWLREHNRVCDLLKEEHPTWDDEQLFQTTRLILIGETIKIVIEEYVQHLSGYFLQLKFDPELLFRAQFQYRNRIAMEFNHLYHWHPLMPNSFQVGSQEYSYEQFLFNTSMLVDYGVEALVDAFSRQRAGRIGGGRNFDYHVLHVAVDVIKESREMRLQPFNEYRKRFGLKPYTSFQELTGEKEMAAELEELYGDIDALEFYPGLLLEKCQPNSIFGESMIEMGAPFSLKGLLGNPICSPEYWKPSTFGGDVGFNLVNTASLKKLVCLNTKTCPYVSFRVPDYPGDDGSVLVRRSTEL
Put plainly: Macrophage assay (RAW264.7), COX-1. The class given is cell-based, murine. From the text: (§3) Thus, NSAID derivatives that are identified as potentially useful in the methods described herein can be further tested using, for example, the RAW264.7 murine macrophage cell line. These cells are readily available (for example, from the American Type Culture Collection (ATCC), Manassas, Va., United States of America) and are easily cultured in large numbers. They normally express low levels of COX-1 and very low to undetectable levels of COX-2. Upon exposure to bacterial lipopolysaccharide (LPS), however, COX-2 levels increase dramatically over the ensuing 24 hour period, and the cells produce PGD2 and PGE2 from endogenous arachidonic acid stores (generally, ˜1 nmol/10^7 cells total PG formation). After LPS exposure, the addition of exogenous arachidonic acid results in the formation of additional PGD2 and PGE2 as a result of metabolism by the newly synthesized COX-2.
(§4) This system provides a number of approaches for testing the inhibitory potency of COX-2-selective ligands (e.g., inhibitors). In general, following LPS activation, cells can be treated for 30 minutes with the desired concentrations of candidate derivative(s) in DMSO. ^14C-arachidonic acid can be added, and the cells can be incubated for 15 minutes at 37° C. Product formation can be assessed following extraction and TLC separation of the culture medium. Alternatively, the effects of candidate derivatives on PG synthesis from endogenous arachidonic acid can be assessed by incubating cells with desired concentrations of candidate derivatives 30 minutes prior to LPS exposure. Following a 24-hour incubation, medium can be collected and extracted, and the amount of PGD2 and/or PGE2 can be assayed by gas chromatography-mass spectrometry, liquid chromatography-mass spectrometry, or ELISA.

The target in data set [4] is T5, COX-2 (Mus musculus, UniProt Q05769).
T5 construct: metabolism by the newly synthesized COX-2; endogenous in cells
T5 sequence (Q05769 18-604): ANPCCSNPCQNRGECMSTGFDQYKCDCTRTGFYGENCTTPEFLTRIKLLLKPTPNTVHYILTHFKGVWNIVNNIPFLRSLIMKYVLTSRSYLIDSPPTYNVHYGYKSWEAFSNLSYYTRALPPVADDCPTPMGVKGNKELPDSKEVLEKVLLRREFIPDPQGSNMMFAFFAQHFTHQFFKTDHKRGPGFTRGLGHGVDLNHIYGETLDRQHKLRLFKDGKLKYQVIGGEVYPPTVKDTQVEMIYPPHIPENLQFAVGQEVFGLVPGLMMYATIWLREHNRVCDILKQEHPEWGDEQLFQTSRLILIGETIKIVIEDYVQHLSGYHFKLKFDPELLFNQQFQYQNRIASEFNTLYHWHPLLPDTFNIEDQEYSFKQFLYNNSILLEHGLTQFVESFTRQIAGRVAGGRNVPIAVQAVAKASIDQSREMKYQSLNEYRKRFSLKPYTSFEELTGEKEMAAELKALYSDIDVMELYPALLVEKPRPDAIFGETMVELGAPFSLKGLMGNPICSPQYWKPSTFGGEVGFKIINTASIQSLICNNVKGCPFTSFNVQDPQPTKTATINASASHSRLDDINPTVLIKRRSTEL
Put plainly: Macrophage assay (RAW264.7), COX-2. The class given is cell-based, murine. Conditions: Table 2; macrophage assay (M); read-out: IC50 COX-2.
Excerpt: as §3, §4

Read-outs that look alike come from different tables or passages of the source. A value given as a limit tells only on which side of the number the result lay.

One may read the IC50 as the midpoint of a concentration-inhibition curve. Take `COc1ccc2c(c1)c(CC(=O)Nc1ccc(F)cc1)c(C)n2C(=O)c1ccc(Cl)cc1` [p-fluorophenylamide of indomethacin, indomethacin-N-(4-fluorophenyl)amide]: the IC50 on COX-1 [1] was above 66 µM.

In the case of `COc1ccc2c(c1)c(CC(=O)NCCNC(=O)c1ccc(C(=O)[O-])c(C3=c4cc5c6c(c4Oc4c3cc3c7c4CCCN7CCC3)CCC[N+]=6CCC5)c1)c(C)n2C(=O)c1ccc(Cl)cc1` [Compound 27ww], the “fluorescence imaging of cells” value in the data set on RAW264.7 cells (200 nM, 30 minutes, LPS-activated RAW264.7) is on record as “No fluorescence above background”. Besides, in the data set with RAW264.7 cells, the “fluorescence of control compounds in these in vitro assays” value is “minimal fluorescence”. Besides, the IC50 at ovine COX-1 and at COX-2 [2] (Table 3) was above 25 µM each time.

Consider `COc1ccc2c(c1)c(CC(=O)NCCNC(=O)c1cc3ccccc3oc1=O)c(C)n2C(=O)c1ccc(Cl)cc1` [Compound 27cc, N-{2-(Coumarin-3-carboxylamido)ethyl}-2-{1-(4-chlorobenzoyl)-5-methoxy-2-methyl-1H-indol-3-yl}acetamide], for which the “Fluor. λem” value in “Fluorescence in buffer” was determined as 405 nm. Besides, the “Fluor. λex” value in the data set “Fluorescence in buffer” worked out at 340 nm. Further, the IC50 against COX-1 [3] (Table 3, macrophage assay) is above 2.5e-05 M; at ovine COX-1, above 25 µM; on COX-2 [2] (Table 3) it was 0.789 µM.

With `Cc1ccc(-c2cc(CCC(=O)O)nn2-c2ccc(S(N)(=O)=O)cc2)cc1` [Compound 30c, 3-[1-{p-(Sulfonamido)phenyl}-5-p-tolyl-1H-pyrazol-3-yl]propanoic acid], the IC50 at COX-2 [4] was 1.4e-06 M; at COX-1 [3] (Table 2, macrophage assay (M)), above 5e-06 M; at COX-2 [2] (Table 2), 8.9 µM.

For the molecule `COc1ccc2c(c1)c(CC(=O)NCCCNS(=O)(=O)c1cccc3c(N(C)C)cccc13)c(C)n2C(=O)c1ccc(Cl)cc1` [Compound 27y], the “Fluor. λem” value in “Fluorescence in buffer” stood at 497 nm. In addition, the “Fluor. λex” value in the data set “Fluorescence in buffer” amounted to 343 nm. The IC50 at COX-1 [3] (Table 3, macrophage assay) is above 1e-06 M; on ovine COX-1, above 25 µM; on COX-2 [2] (Table 3), 0.075 µM.

On to `COc1ccc2c(c1)c(CCNC(=O)c1ccc(C3=c4cc5c6c(c4Oc4c3cc3c7c4CCCN7CCC3)CCC[N+]=6CCC5)c(C(=O)[O-])c1)c(C)n2Cc1ccc(Br)cc1` [Compound 28f], for which the “fluorescence of control compounds in these in vitro assays” value in the data set with RAW264.7 cells is “minimal fluorescence”. Further, the IC50 on ovine COX-1 and on COX-2 [2] (Table 3) was above 25 µM each time.

Consider `COc1ccc2c(c1)c(CC(=O)NCCCCNS(=O)(=O)c1cccc3c(N(C)C)cccc13)c(C)n2C(=O)c1ccc(Cl)cc1` [Compound 27z], for which the “Fluor. λem” value in “Fluorescence in buffer” came out at 504 nm. For the same molecule, the “Fluor. λex” value in “Fluorescence in buffer” was found to be 324 nm. Moreover, the IC50 on COX-1 [3] (Table 3, macrophage assay) is above 1e-06 M; against ovine COX-1, above 25 µM; on COX-2 [2] (Table 3), 0.067 µM.
